What is called IC50 is the concentration that inhibits the measured activity by half. Low values mean higher potency, high ones lower potency.

The record followed here is patent publication US12521393B2, “Cytotoxicity targeting chimeras for CCR2-expressing cells” (GLAXOSMITHKLINE INTELLECTUAL PROPERTY DEVELOPMENT LIMITED, priority 2021, dated 2026).

The subject of test [1] is endogenous target monocytes in human PBMC. In words: PBMC ex vivo monocyte depletion flow cytometry assay (Example 200). It counts as cell-based. The conditions noted are these: with anti-cotinine antibody (SEQ ID NO: 11/12), 18-24 hours, EC50 in molar, read-out: Ex Vivo Depletion Assay pEC50 (converted). In short, it runs like this: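 Monocyte depletion is reported as pEC50, averaged or given individually across runs, and read by flow cytometry staining CD45, CD14 and CD4 with a viability dye. Compounds, diluted four-fold over 11 points from 1 mM DMSO stocks, were combined with 30 μg/mL Fc-enhanced anti-cotinine antibody and human PBMC, then incubated 18-24 h at 37° C.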

The target in test [2] is anti-cotinine antibody (SEQ ID NO: 11/12, rabbit variable region with human IgG1 Fc DE mutation). Description: SPR binding of anti-cotinine antibody to ARM compounds, Biacore T200, 37° C. (Example 202). To be noted: SPR Biacore T200, 37° C., pH 7.4, antibody SEQ ID NO: 11/12 captured on protein A; Kd in molar. On the procedure: Anti-cotinine antibodies having a heavy chain sequence of SEQ ID NO: 11 and a light chain sequence of SEQ ID NO: 12 (rabbit variable region with human IgG1 Fc domain containing a DE mutation (S239D/1332E)) were captured on one or more flow cells of a protein A sensor chip (Cytiva) using a Biacore T200 while reserving flow cell 1 as a reference. Following capture, a 3000 second wait step was included to reduce drift during compound analysis. ARM compounds of Formula (I) were then injected at 100 μL/min with 200 and 2000 second association and dissociation times. The entire experiment was run at 37° C. with running buffer containing 10 mM HEPES pH 7.4, 150 mM NaCl, 0.005% P20 and 1% DMSO. ARM compounds of Formula (I) were titrated with a top concentration of 200 nM using a 3-fold 5-point dilution series and a corresponding 5-injection buffer cycle was run for blank subtraction. Data were double referenced by subtracting the response of the reference flow cell from that of the antibody-containing flow cell and subsequently subtracting the referenced blank sensorgrams. Following compound analysis, the surface was regenerated using a 30 second injection of pH 1.5 glycine at a flow rate of 30 μL/min after which antibody was re-captured. The experiment was run using Biacore T200 control software and evaluated using Biacore T200 Evaluation software. Curves were fit with a 1:1 kinetic binding model to obtain kon (1/Ms), koff(1/s), Kd (M) determined as koff/kon, and residence time determined as 1/koff (s).
Anti-cotinine antibody was tested for binding to ARMs compounds of Formula (I) of the invention in the above assay in or more experimental runs and the results are shown in Table 5 below. Affinity is reported as a pKd value. The pKd value is the negative log of the Kd value, wherein the Kd value is the dissociation constant measured in molar (M) as noted above. For compounds tested in more than one experimental run, the pKd value is reported as an average
In general terms: Surface plasmon resonance follows binding to a sensor surface in real time, without labels.

The target in test [3] is human alpha1 nicotinic acetylcholine (nACh) receptor (Homo sapiens, UniProt P02708). Description: Nicotinic acetylcholine receptor antagonism assay, IONFlux automated patch clamp (Example 203). It counts as cell-based. The conditions noted are these: for IC50: antagonism of ACh-stimulated human alpha1 nAChR current, patch clamp; for Emax at 10 µM: maximum percentage antagonism at maximum concentration tested 10 μM, read-out: Maximum Response. In short, it runs like this:
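Cells expressing human α1 nAChR were incubated with a compound dose response (top 10 μM or 100 μM), then stimulated with ACh (10 mM), and peak current was read by automated patch clamp. % inhibition was taken against ACh-alone control, corrected for vehicle and run-down, and fit non-linearly for IC50; runs were averaged.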
In general terms: The patch-clamp technique gives a direct electrical read-out from membranes.

Sequence of human alpha1 nicotinic acetylcholine (nACh) receptor (P02708 21-457): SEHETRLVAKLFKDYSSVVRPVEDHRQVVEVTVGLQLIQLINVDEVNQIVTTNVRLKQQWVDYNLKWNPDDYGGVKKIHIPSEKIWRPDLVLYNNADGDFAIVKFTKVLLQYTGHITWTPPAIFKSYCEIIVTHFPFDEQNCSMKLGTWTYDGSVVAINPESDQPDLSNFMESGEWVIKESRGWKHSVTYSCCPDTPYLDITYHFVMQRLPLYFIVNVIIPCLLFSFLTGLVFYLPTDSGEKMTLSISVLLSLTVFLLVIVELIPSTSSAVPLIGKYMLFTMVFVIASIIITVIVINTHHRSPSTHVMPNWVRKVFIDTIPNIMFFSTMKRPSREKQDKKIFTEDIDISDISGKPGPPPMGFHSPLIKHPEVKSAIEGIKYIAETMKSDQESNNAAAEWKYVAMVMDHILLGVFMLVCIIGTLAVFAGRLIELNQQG
Sequence of human alpha1 nicotinic acetylcholine (nACh) receptor (P11230 24-501 partner): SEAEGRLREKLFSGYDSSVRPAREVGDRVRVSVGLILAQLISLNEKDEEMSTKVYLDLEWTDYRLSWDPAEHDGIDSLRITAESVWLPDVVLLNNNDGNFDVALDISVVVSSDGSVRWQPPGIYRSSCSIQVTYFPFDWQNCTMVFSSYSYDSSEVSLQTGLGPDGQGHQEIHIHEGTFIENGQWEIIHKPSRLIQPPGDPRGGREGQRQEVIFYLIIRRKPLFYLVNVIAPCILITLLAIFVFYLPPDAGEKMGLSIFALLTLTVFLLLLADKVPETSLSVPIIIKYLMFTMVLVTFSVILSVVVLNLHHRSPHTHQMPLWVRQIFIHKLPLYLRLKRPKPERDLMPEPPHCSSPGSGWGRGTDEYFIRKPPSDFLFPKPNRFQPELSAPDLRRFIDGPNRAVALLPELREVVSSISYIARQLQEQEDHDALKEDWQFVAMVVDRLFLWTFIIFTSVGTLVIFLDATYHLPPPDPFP
Sequence of human alpha1 nicotinic acetylcholine (nACh) receptor (Q07001 22-517 partner): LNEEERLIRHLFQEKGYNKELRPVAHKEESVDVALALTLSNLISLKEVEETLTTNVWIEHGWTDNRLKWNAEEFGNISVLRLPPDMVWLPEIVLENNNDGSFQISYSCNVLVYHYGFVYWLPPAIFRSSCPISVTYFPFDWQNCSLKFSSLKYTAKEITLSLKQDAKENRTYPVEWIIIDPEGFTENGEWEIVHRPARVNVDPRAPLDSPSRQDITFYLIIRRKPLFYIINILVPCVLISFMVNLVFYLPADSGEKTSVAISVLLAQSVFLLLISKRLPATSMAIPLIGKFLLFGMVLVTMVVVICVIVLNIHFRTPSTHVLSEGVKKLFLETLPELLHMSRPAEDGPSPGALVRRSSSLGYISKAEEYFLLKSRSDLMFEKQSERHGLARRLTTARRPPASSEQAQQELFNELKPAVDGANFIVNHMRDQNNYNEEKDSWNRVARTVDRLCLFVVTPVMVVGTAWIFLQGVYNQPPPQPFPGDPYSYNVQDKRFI

As for `CC(C)N(C)[C@@H]1CC[C@H](N2CC[C@H](Nc3ncnc4ccc(C(F)(F)F)cc34)C2=O)[C@H](NC(=O)[C@H]2CC[C@@H](C3CCN(C(=O)CCOCCOCCNC(=O)[C@H]4CC(=O)N(C)[C@@H]4c4cccnc4)CC3)CC2)C1` [Example 72, (2S,3S)-N-(2-(2-(3-(4-((1S,4s)-4-(((1R,2S,5R)-5-(isopropyl(methyl)amino)-2-((S)-2-oxo-3-((6-(trifluoromethyl)quinazolin-4-yl)amino)pyrrolidin-1-yl)cyclohexyl)carbamoyl)cyclohexyl)piperidin-1-yl)-3-oxopropoxy)ethoxy)ethyl)-1-methyl-5-oxo-2-(pyridin-3-yl)pyrrolidine-3-carboxamide], in test [1], the EC50 was 7.94 nM. Further, the “pKd of Antibody for ARM Compound of Formula (I)” value (shortened to “pKd of Antibody”) in test [2] is 9.8865. In test [3], the half-maximal inhibitory concentration (IC50) is at least 10000 nM and the Emax at 10 µM amounted to 32.7%.
The matching figures for `CC(C)N(C)[C@@H]1CC[C@H](N2CC[C@H](Nc3ncnc4ccc(C(F)(F)F)cc34)C2=O)[C@H](NC(=O)[C@H]2CC[C@H](C3CCN(C(=O)CCOCCOCCNC(=O)[C@H]4CC(=O)N(C)[C@@H]4c4cccnc4)CC3)CC2)C1` [Example 73, (2S,3S)-N-(2-(2-(3-(4-((1R,4r)-4-(((1R,2S,5R)-5-(Isopropyl(methyl)amino)-2-((S)-2-oxo-3-((6-(trifluoromethyl)quinazolin-4-yl)amino)pyrrolidin-1-yl)cyclohexyl)carbamoyl)cyclohexyl)piperidin-1-yl)-3-oxopropoxy)ethoxy)ethyl)-1-methyl-5-oxo-2-(pyridin-3-yl)pyrrolidine-3-carboxamide]: 100000 nM, 9.8185, at least 10000 nM and 4.1%.
The matching figures for `CC(C)N(C)[C@@H]1CC[C@H](N2CC[C@H](Nc3ncnc4ccc(C(F)(F)F)cc34)C2=O)[C@H](NC(=O)COCCOCCNC(=O)CCOCCOCCNC(=O)[C@H]2CC(=O)N(C)[C@@H]2c2cccnc2)C1` [Example 77, (2S,3S)-N-(1-(((1R,2S,5R)-5-(Isopropyl(methyl)amino)-2-((S)-2-oxo-3-((6-(trifluoromethyl)quinazolin-4-yl)amino)pyrrolidin-1-yl)cyclohexyl)amino)-1,10-dioxo-3,6,13,16-tetraoxa-9-azaoctadecan-18-yl)-1-methyl-5-oxo-2-(pyridin-3-yl)pyrrolidine-3-carboxamide]: 6.31 nM, 9.152, at least 10000 nM and 19.6%.
`CC(C)N(C)[C@@H]1CC[C@H](N2CC[C@H](Nc3ncnc4ccc(C(F)(F)F)cc34)C2=O)[C@H](NC(=O)COCCNC(=O)COCCNC(=O)CCOCCNC(=O)[C@H]2CC(=O)N(C)[C@@H]2c2cccnc2)C1` [Example 151, (2S,3S)-N-(1-(((1R,2S,5R)-5-(Isopropyl(methyl)amino)-2-((S)-2-oxo-3-((6-(trifluoromethyl)quinazolin-4-yl)amino)pyrrolidin-1-yl)cyclohexyl)amino)-1,7,13-trioxo-3,9,16-trioxa-6,12-diazaoctadecan-18-yl)-1-methyl-5-oxo-2-(pyridin-3-yl)pyrrolidine-3-carboxamide]: the EC50 in test [1] was 2 nM. In addition, the “pKd of Antibody” value in test [2] was determined as 9.0755.
The matching figures for `CC(C)N(C)[C@@H]1CC[C@H](N2CC[C@H](Nc3ncnc4ccc(C(F)(F)F)cc34)C2=O)[C@H](NC(=O)CCOCCOCCOCCNc2c(NCCNC(=O)[C@H]3CC(=O)N(C)[C@@H]3c3cccnc3)c(=O)c2=O)C1` [Example 168, (2S,3S)-N-(2-((2-((2-(2-(2-(3-(((1R,2S,5R)-5-(Isopropyl(methyl)amino)-2-((S)-2-oxo-3-((6-(trifluoromethyl)quinazolin-4-yl)amino)pyrrolidin-1-yl)cyclohexyl)amino)-3-oxopropoxy)ethoxy)ethoxy)ethyl)amino)-3,4-dioxocyclobut-1-en-1-yl)amino)ethyl)-1-methyl-5-oxo-2-(pyridin-3-yl)pyrrolidine-3-carboxamide]: 1 nM and 9.06.
The matching figures for `CC(C)N(C)[C@@H]1CC[C@H](N2CC[C@H](Nc3ncnc4ccc(C(F)(F)F)cc34)C2=O)[C@H](NC(=O)[C@H]2CC[C@@H](NC(=O)CCOCCNC(=O)COCCCNC(=O)[C@H]3CC(=O)N(C)[C@@H]3c3cccnc3)CC2)C1` [Example 175, (2S,3S)-N-(3-(2-((2-(3-(((1S,4s)-4-(((1R,2S,5R)-5-(Isopropyl(methyl)amino)-2-((S)-2-oxo-3-((6-(trifluoromethyl)quinazolin-4-yl)amino)pyrrolidin-1-yl)cyclohexyl)carbamoyl)cyclohexyl)amino)-3-oxopropoxy)ethyl)amino)-2-oxoethoxy)propyl)-1-methyl-5-oxo-2-(pyridin-3-yl)pyrrolidine-3-carboxamide]: 0.631 nM and 9.244.
The matching figures for `CC(C)N(C)[C@@H]1CC[C@H](N2CC[C@H](Nc3ncnc4ccc(C(F)(F)F)cc34)C2=O)[C@H](NC(=O)CCCC(=O)N[C@H]2CC[C@H](CNC(=O)CCOCCNC(=O)[C@H]3CC(=O)N(C)[C@@H]3c3cccnc3)CC2)C1` [Example 180, N^1-((1R,2S,5R)-5-(isopropyl(methyl)amino)-2-((S)-2-oxo-3-((6-(trifluoromethyl)quinazolin-4-yl)amino)pyrrolidin-1-yl)cyclohexyl)-N^5-((1S,4R)-4-((3-(2-((2S,3S)-1-methyl-5-oxo-2-(pyridin-3-yl)pyrrolidine-3-carboxamido)ethoxy)propanamido)methyl)cyclohexyl)glutaramide]: 1.26 nM and 9.249.
As to `CC(C)N(C)[C@@H]1CC[C@H](N2CC[C@H](Nc3ncnc4ccc(C(F)(F)F)cc34)C2=O)[C@H](NC(=O)COCCNC(=O)CCNC(=O)CCOCCOCCNC(=O)[C@H]2CC(=O)N(C)[C@@H]2c2cccnc2)C1` [Example 181, (2S,3S)-N-(1-(((1R,2S,5R)-5-(Isopropyl(methyl)amino)-2-((S)-2-oxo-3-((6-(trifluoromethyl)quinazolin-4-yl)amino)pyrrolidin-1-yl)cyclohexyl)amino)-1,7,11-trioxo-3,14,17-trioxa-6,10-diazanonadecan-19-yl)-1-methyl-5-oxo-2-(pyridin-3-yl)pyrrolidine-3-carboxamide], in test [1], the EC50 was 0.398 nM. Besides, in test [2], the “pKd of Antibody” value came to 9.1645.
The matching figures for `CC(C)N(C)[C@@H]1CC[C@H](N2CC[C@H](Nc3ncnc4ccc(C(F)(F)F)cc34)C2=O)[C@H](NC(=O)[C@H]2CC[C@@H](NC(=O)CCOCCNC(=O)CCCCNC(=O)[C@H]3CC(=O)N(C)[C@@H]3c3cccnc3)CC2)C1` [Example 198, (2S,3S)-N-(5-((2-(3-(((1S,4s)-4-(((1R,2S,5R)-5-(Isopropyl(methyl)amino)-2-((S)-2-oxo-3-((6-(trifluoromethyl)quinazolin-4-yl)amino)pyrrolidin-1-yl)cyclohexyl)carbamoyl)cyclohexyl)amino)-3-oxopropoxy)ethyl)amino)-5-oxopentyl)-1-methyl-5-oxo-2-(pyridin-3-yl)pyrrolidine-3-carboxamide]: 0.501 nM and 9.3835.
